From patent publication US12422438B2, “Means and methods for single molecule peptide sequencing” (VIB VZW, priority 2017, dated 2025)

T1: T. aquaticus aminopeptidase T (Thermus aquaticus, UniProt P23341)
T1 construct: 6xHis (C); made in house; host or cells: E. coli BL21(DE3), pET24b(+)
T1 sequence (P23341 with tags, fused parts or gaps): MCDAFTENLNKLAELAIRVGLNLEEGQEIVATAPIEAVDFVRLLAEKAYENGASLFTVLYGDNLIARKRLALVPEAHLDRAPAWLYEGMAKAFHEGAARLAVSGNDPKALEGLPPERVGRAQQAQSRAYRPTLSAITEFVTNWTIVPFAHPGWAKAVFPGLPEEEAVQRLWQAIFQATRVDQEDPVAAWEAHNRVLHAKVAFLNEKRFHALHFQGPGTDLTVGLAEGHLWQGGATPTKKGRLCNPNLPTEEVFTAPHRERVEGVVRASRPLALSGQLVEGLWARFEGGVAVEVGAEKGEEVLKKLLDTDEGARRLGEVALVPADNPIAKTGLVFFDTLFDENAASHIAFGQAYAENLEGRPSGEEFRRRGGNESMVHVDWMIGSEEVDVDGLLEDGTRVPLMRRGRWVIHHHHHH


Tests used:
[1] = target: T1, T. aquaticus aminopeptidase T; assay type: biochemical; details: 40° C.; for Km / kcat: PBS; for Km: enzyme 2.0625 μM, substrate 0.0625-2 mM, Lineweaver-Burke plot; for kcat: kcat=Vmax/[E]; for on-time (min) / on-time (s): calculated as 1/kcat
Procedure: (§1) The kinetic parameters from T. aquaticus aminopeptidase T for cleaving different amino acid substrates was determined with a p-nitroanilide assay. Substrates consist of an N-terminal amino acid with a p-nitroanilide attached to its C-terminus. Upon amino acid cleavage, the free nitroanilide can be monitored by measuring the absorbance at 405 nm. T. aquaticus aminopeptidase T as depicted in SEQ ID No 8 was added in a concentration of 2.0625 μM (in PBS) to different concentrations of amino acid p-nitroanilide substrate (0.0625, 0.125, 0.25, 0.5, 1 and 2 mM in PBS). Subsequently p-nitroanilide release was continuously measured at 40° C. with a FLUOstar Omega microplate reader (MBG LabTech). From this, the initial velocity of the reaction at each substrate concentration was derived (v0). For each amino acid, a Lineweaver-Burke plot was generated from which the reaction Vmax and enzyme-substrate KM was determined. The turnover number, kcat, was calculated from the Vmax and the enzyme concentration (kcat=Vmax/[E]). The enzyme on-time value was then calculated by taking the reciprocal from the kcat value. The “on-time” values as shown in Table 1 are calculated as 1/kcat and as such is the overall time needed for an enzyme solution on the peptide until catalysis occurs.
(§2) The assays were performed at 40° C. below the enzyme's temperature optimum. Working more closely to the optimal temperature of 70° C. speeds up the reaction speed (kcat and enzyme on-time). […] The results as shown here not only validate the utility of the aminopeptidase as disclosed herein but also underpin and substantiate the methods and uses disclosed in current application.

[2] = target: T1, T. aquaticus aminopeptidase T; test: Aminopeptidase assay with different amino acid p-nitroanilide substrates at 40° C. and 80° C.; assay type: biochemical; details: 2 h, PBS, substrate 1.5 mM
Procedure: FIG. 11. Aminopeptidase assay with different amino acid p-nitroanilide substrates. Enzyme and substrate (1.5 mM) were incubated for 2 h at 40° C. or 80° C. in PBS, after which the released p-nitroanilide was quantified by measuring the absorbance at 405 nm.
As described herein and in line with the invention described in current application, the activity differs between different amino acids. At 80° C., the panel of amino acid substrates can be roughly divided in fast-cleaved (L, M, Y, R, F) and slow-cleaved (D, P) substrates. However, at 40° C. it seems like the panel is divided in fast-cleaved (Y, R) and slow-cleaved (D, P), and substrates that lie in between (L, M, F). […] Finally, TagAPT is not only active in the p-nitroanilide assay. […] The N-terminal amino acid from peptides with proline at the second position is not easily cleaved since peptide bonds adjacent to the amino acid proline are resistant to cleavage by most peptidases (Iyver et al. 2015 FEBS Open Bio. 2015 Apr. 2; 5:292-302). In contrast to what Is stated in Minagawa et al (1988 Agricultural and Biological Chemistry 52:1755-1763) we show here that T. aquaticus aminopeptidase T can cleave N-terminal amino acids even when proline is at the second position. This surprising finding greatly enhances the generic use of Tag-APT in the method and uses disclosed in current application and in single molecule peptide sequencing in general.

[3] = Spontaneous Edman degradation (SPITC-induced cleavage) of amino acid p-nitroanilide substrates; details: 30 min at 40° C., 300 mM triethanolamine in 50% acetonitrile (pH 9)
Procedure: FIG. 16. Spontaneous Edman degradation of different amino acid p-nitroanilide substrates. A. Sulfophenyl isothiocyanate (SPITC, 15 mM) and substrate (1.5 mM) were incubated for 30 min at 40° C. in 300 mM triethanolamine in 50% ACN, after which the released p-nitroanilide was quantified by measuring the absorbance at 405 nm. B. Time-kinetic measurement of SPITC-induced amino acid p-nitroanilide substrate cleavage.
Importantly, this spontaneous cleavage activity is also observed under conditions that are not typically used during the cleavage step in the classic Edman degradation reaction. In classic Edman degradation. ITC coupling is achieved under mild alkaline conditions (pyridine, trimethylamine, N-methylpiperidine) and amino acid cleavage under acidic conditions (trifluoroacetic acid). Here both ITC coupling and amino acid cleavage is achieved under mild alkaline conditions (triethanolamine).

[4] = substrate: CC(C)C[C@H](N)C(=O)Nc1ccc([N+](=O)[O-])cc1; test: purified protein, by the assay type; assay type: biochemical; details: other: 40° C., PBS, enzyme 2.0625 μM, substrate 0.0625-2 mM, Lineweaver-Burke plot
Procedure: as §1, §2

Row | Molecule | Km [1] | kcat [1] | on-time (min) [1] | on-time (s) [1] | cleavage speed category of substrate ([2]; 40° C.) | cleavage speed category of substrate ([2]; 80° C.) | cleavage speed category of substrate (endpoint activity measurement) [3] | Km [4] | kcat [4] | kcat/Km [4]
1 | C[C@H](N)C(=O)Nc1ccc([N+](=O)[O-])cc1 [Ala] | 736 µM | 0.01167 s⁻¹ | 1.4 min | 86 s | – | – | – | – | – | –
2 | NC(N)=NCCC[C@H](N)C(=O)Nc1ccc([N+](=O)[O-])cc1 [Arg] | 415 µM | 0.01638 s⁻¹ | 1.0 min | 61 s | fast-cleaved | fast-cleaved | fast-cleaved | – | – | –
3 | N[C@@H](CC(=O)O)C(=O)Nc1ccc([N+](=O)[O-])cc1 [D] | – | – | – | – | slow-cleaved | slow-cleaved | slow-cleaved | – | – | –
4 | N[C@@H](Cc1ccccc1)C(=O)Nc1ccc([N+](=O)[O-])cc1 [F] | – | – | – | – | in between | fast-cleaved | fast-cleaved | – | – | –
5 | NCC(=O)Nc1ccc([N+](=O)[O-])cc1 [Gly] | 765 µM | 0.00307 s⁻¹ | 5.4 min | 326 s | – | – | – | – | – | –
6 | CC(C)C[C@H](N)C(=O)Nc1ccc([N+](=O)[O-])cc1 [Leu, L-leucine-p-nitroanilide] | – | – | 6.5 min | 390 s | in between | fast-cleaved | fast-cleaved | – | – | –
7 | NCCCC[C@H](N)C(=O)Nc1ccc([N+](=O)[O-])cc1 [Lys] | 193 µM | 0.00148 s⁻¹ | 11.3 min | 677 s | – | – | – | – | – | –
8 | CSCC[C@H](N)C(=O)Nc1ccc([N+](=O)[O-])cc1 [Met] | 99 µM | 0.00471 s⁻¹ | 3.5 min | 212 s | in between | fast-cleaved | fast-cleaved | – | – | –
9 | O=C(Nc1ccc([N+](=O)[O-])cc1)[C@@H]1CCCN1 [Pro] | 546 µM | 0.00198 s⁻¹ | 8.4 min | 504 s | slow-cleaved | slow-cleaved | slow-cleaved | – | – | –
10 | N[C@@H](Cc1ccc(O)cc1)C(=O)Nc1ccc([N+](=O)[O-])cc1 [Tyr] | 211 µM | 0.00707 s⁻¹ | 2.4 min | 142 s | fast-cleaved | fast-cleaved | fast-cleaved | – | – | –
11 | CC(C)[C@H](N)C(=O)Nc1ccc([N+](=O)[O-])cc1 [Val] | 192 µM | 0.00138 s⁻¹ | 12.1 min | 727 s | – | – | – | – | – | –
12 | T. aquaticus aminopeptidase T (Thermus aquaticus) (protein, 6xHis (C); made in house; host or cells: E. coli BL21(DE3), pET24b(+)) MCDAFTENLNKLAELAIRVGLNLEEGQEIVATAPIEAVDFVRLLAEKAYENGASLFTVLYGDNLIARKRLALVPEAHLDRAPAWLYEGMAKAFHEGAARLAVSGNDPKALEGLPPERVGRAQQAQSRAYRPTLSAITEFVTNWTIVPFAHPGWAKAVFPGLPEEEAVQRLWQAIFQATRVDQEDPVAAWEAHNRVLHAKVAFLNEKRFHALHFQGPGTDLTVGLAEGHLWQGGATPTKKGRLCNPNLPTEEVFTAPHRERVEGVVRASRPLALSGQLVEGLWARFEGGVAVEVGAEKGEEVLKKLLDTDEGARRLGEVALVPADNPIAKTGLVFFDTLFDENAASHIAFGQAYAENLEGRPSGEEFRRRGGNESMVHVDWMIGSEEVDVDGLLEDGTRVPLMRRGRWVIHHHHHH | – | – | – | – | – | – | – | 92 µM | 0.00256 s⁻¹ | 27.9 M⁻¹ s⁻¹
